The results in this text go back to EP3355943B1, “METHODS AND SYSTEMS FOR TREATING MEDICAL DEVICES AND FLUIDS” (Ethicon, Inc., priority 2015, dated 2017).

The structures appear in SMILES notation. Where “and” joins values, the source holds several entries; their conditions need not be identical. Identical values can stand only once.

Holding throughout (format): biochemical
The nature of test [1]: Detection of LPS after adding CaSt powder to water spiked with LPS (Kinetic Chromogenic Method for Endotoxin Quantitation). As for the experimental part:
Water and aqueous solutions (containing LPS with various sources of endotoxin) were exposed to calcium stearate [CaSt] […] 5 mL of water solution of known endotoxin concentration (generated by spiking endotoxin-free water with water solution of known endotoxin concentration) was added to the each test tube, vortexed vigorously (1 minute) using Fisher Scientific Digital Vortex Mixer, and then placed in a warm water bath (37°C) for 1 hour. After 1 hour, the tubes were removed from warm water bath and vortexed vigorously (1 minute). Sterile syringes with needles were used to extract the solution without removing the calcium stearate. This solution was then tested for endotoxin levels. Kinetic Chromogenic Method for Endotoxin Quantitation, using Endosafe MCS Multi Cartridge System by Charles River Laboratories, Charleston S.C.

The nature of test [2]: Wound dressing (fibrin pad) spiked with LPS, treated in cyclohexane containing CaSt. Conditions: Tube 2: 10 mL cyclohexane with 0.1 g CaSt, 15 minutes rolling; for Endotoxin detected on Pad (EU): pad spiked 8.9 EU. As for the experimental part: A wound dressing containing dry fibrinogen and dry thrombin on an absorbable support was tested as follows. The pad was spiked with LPS and then exposed to cyclohexane containing CaSt to determine the effect on detectable LPS.
Three 1x2 inch pieces of the dressing were spiked with endotoxin resulting in 8.9 EU of LPS. The pieces were allowed to dry for 20 minutes, then placed into 50 mL polypropylene conical tubes. 7.5 mL of LAL reagent water +2.5 mL 0.25M tris buffer was added to Tube 1. 10 mL of cyclohexane with 0.1 g of CaSt was added to Tube 2. 10 mL of cyclohexane was added to Tube 3. The tubes were closed and then placed on the bottle roller rotator machine for 15 minutes so that the tube could continuously roll and the dressing was constantly in contact with liquid.
Tube 1 solution was then diluted and tested for endotoxin on the MCS system. The fibrin pad pieces from Tube 2 and Tube 3 were removed and placed in new tubes and extracted in 7.5 mL of LAL reagent water + 2.5 mL 0.25M tris buffer. The solutions were then tested on the MCS system for endotoxin (LPS). Table 9. Results of testing of dressing in cyclohexane containing CaSt

A short description of test [3]: Suture testing in ethyl acetate containing CaSt: detection of LPS on suture. The conditions noted are these: LPS-contaminated suture submerged in Ethyl Acetate w/ 5% Calcium Stearate, vortexed 10 seconds. As for the experimental part: An absorbable VICRYL® (Polyglactin 910) suture (Size 1, Length: 27in) made of a copolymer made from 90% glycolide and 10% L-lactide was exposed to a solution containing LPS (endotoxin) (9 Strands of Vicryl suture were immersed in tubing with endotoxin solution (SRW, Concentration: 3980 EU/mL) for 10 minutes at a time at ambient temperature. The sutures were air dried for 20 minutes in a vented chemical hood and then placed in round bottom and dried The suture was then immersed into Ethyl Acetate (EtAc) containing CaSt, vortexed briefly for 10 seconds, dried for 20 minutes in a vented chemical hood, and extracted in endotoxin free water at ambient temperature. The suture extracted in endotoxin free water (LRW) was then tested for LPS using the Kinetic Chromogenic Method for Endotoxin Quantitation, Charles River Laboratories, Charleston S.C.

The mark [4] stands for this setting: 0.0027 g CaSt in 5 ml water, 14,400 EU spiked.
Setting [5] is: 0.0108 g CaSt in 5 ml water, 14,400 EU spiked.
[6] abbreviates: 0.0518 g CaSt in 5 ml water, 14,400 EU spiked.
[7] abbreviates: 0.2502 g CaSt in 5 ml water, 14,400 EU spiked.
The mark [8] stands for this setting: CaSt powder 0.254 g (sample 1), 0.2607 g (sample 2) in 5 ml water, 14,400 EU spiked, 0.254 g CaSt powder added.
The mark [9] stands for this setting: CaSt powder 0.254 g (sample 1), 0.2607 g (sample 2) in 5 ml water, 14,400 EU spiked, 0.2607 g CaSt powder added.

On to `CCCCCCCCCCCCCCCCCC(=O)O` [Calcium Stearate], for which the “Endotoxin Detected (EU)” value in test [1] (setting [4]) was 11,055 EU; in test [1] (setting [5]), 2,925 EU; in test [1] (setting [6]), 9.4 EU; in test [1] (setting [7]), 26.7 EU; in test [1] (setting [8]) it was 12.1 EU; in test [1] (setting [9]), 10.3 EU. The “Endotoxin Detected (EU)” value in test [3] was 23.4 EU and 21.78 EU and 25.62 EU. The “Percent of detected Endotoxin vs. initial concentration” value in test [1] (setting [4]) is 77% and 76.77%; in test [1] (setting [5]) it was 20% and 20.31%; in test [1] (setting [6]) it was 0.07%; in test [1] (setting [7]) it was 0.19%; in test [1] (CaSt powder 0.252/0.258/0.272/0.267 g (samples 1-4) in 5 ml water, 5.208 EU spiked, 37°C 1 hour, 0.252 g CaSt powder added), <2.88%; in test [1] (CaSt powder 0.252/0.258/0.272/0.267 g (samples 1-4) in 5 ml water, 5.208 EU spiked, 37°C 1 hour, 0.258 g CaSt powder added) it was <8.06%. In addition, the “Percent of detected Endotoxin vs. initial concentration” value is recorded as <3.46% in test [1] (CaSt powder 0.252/0.258/0.272/0.267 g (samples 1-4) in 5 ml water, 5.208 EU spiked, 37°C 1 hour, 0.267 g CaSt powder added); 0.08% in test [1] (setting [8]); 0.07% in test [1] (setting [9]). Moreover, the “Percent Endotoxin detected as compared to Tube 1” value in test [2] (Tube 1 = no cyclohexane, 8.9 EU) is recorded as 20.2%. In addition, the “Endotoxin detected on Pad (EU)” value in test [2] was 1.8 EU; in test [2] (listed as CaSt) it was 2 EU.
